Assay results taken from the NIST ThermoML archive (doi:10.1016/j.jct.2007.05.004).
Numbers after ± are expanded uncertainties.

Settings: 101 kPa, Liquid

| mass density (293.15 K) [kg/m3] | viscosity (293.15 K) [mPa·s] | mass density (298.15 K) [kg/m3] | viscosity (298.15 K) [mPa·s] | mass density (303.15 K) [kg/m3] | viscosity (303.15 K) [mPa·s] | SMILES |
| --- | --- | --- | --- | --- | --- | --- |
| 789.75 ± 0.46 | 1.187 ± 0.015 | 785.46 ± 0.47 | 1.082 ± 0.014 | 781.15 ± 0.47 | 0.987 ± 0.013 | CCO [ethanol] |
| 933.56 ± 0.4 | 0.386 ± 0.006 | 926.98 ± 0.41 | 0.367 ± 0.006 | 920.34 ± 0.42 | 0.348 ± 0.006 | COC(C)=O [methyl ethanoate] |
| 791.9 ± 0.46 | 0.585 ± 0.008 | 787.2 ± 0.46 | 0.545 ± 0.008 | 782.48 ± 0.47 | 0.508 ± 0.007 | CO [methanol] |
